Results reported in patent US12655160B2, “KRAS G12D inhibitors” (Mirati Therapeutics, Inc., priority 2020, dated 2026).

Target: KRas G12D (Homo sapiens, UniProt P01116, G12D)
Assay: KRas G12D Binding Assay (TR-FRET displacement of labeled tracer)
Parameters: corresponding to amino acids 1:169, produced at Array BioPharma Inc; biotin (biotinylated)
Conditions: TR-FRET displacement of Cy5 labelled tracer, Biotinylated GDP-loaded KRAS G12D (amino acids 1:169), 60 minute incubation at 22° C.
Procedure: This Example illustrates that exemplary compounds of the present invention bind to KRas G12D and are capable of displacing a labeled tracer ligand occupying the KRas G12D binding site. The ability of a compound to bind to KRAS G12D was measured using a TR-FRET displacement assay. Biotinylated GDP-loaded recombinant human KRAS G12D (corresponding to amino acids 1:169, produced at Array BioPharma Inc.) was incubated with a custom-made Cy5 labelled tracer, europium labelled streptavidin and compound (2% DMSO final) in buffer (50 mM HEPES [pH 7.5], 5 mM MgCl2, 0.005% Tween-20 & 1 mM DTT). After a 60 minute incubation at 22° C., the reaction was measured using a PerkinElmer EnVision multimode plate reader via TR-FRET dual wavelength detection, and the percent of control (POC) calculated using a ratiometric emission factor. […] The POC values were fit to a 4-parameter logistic curve and the IC50 value was determined as the concentration where the curve crosses 50 POC.

KRas G12D, sequence (P01116 1-169 isoform P01116-2 G12D): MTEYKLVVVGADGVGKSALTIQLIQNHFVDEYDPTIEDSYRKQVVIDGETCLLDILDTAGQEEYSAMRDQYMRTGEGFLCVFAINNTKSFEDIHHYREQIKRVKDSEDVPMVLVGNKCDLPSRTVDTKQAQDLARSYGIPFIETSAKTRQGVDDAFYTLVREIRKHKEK

How did the IC50 turn out when C=C(C)c1cccc2cccc(-c3ncc4c(NCC5(N(C)C)CCC5)nc(OCC56CCCN5C[C@H](F)C6)nc4c3F)c12 (mixture of isomers) [Example 24, N-((1-(dimethylamino)cyclobutyl)methyl)-8-fluoro-2-(((2S,7aR)-2-fluorotetrahydro-1H-pyrrolizin-7a(5H)-yl)methoxy)-7-(8-(prop-1-en-2-yl)naphthalen-1-yl)pyrido[4,3-d]pyrimidin-4-amine] was run?
The IC50 was 0.954 µM.

How did the IC50 turn out when CC(C)c1cccc2cccc(-c3ncc4c(NCC5(N(C)C)CCC5)nc(OCC56CCCN5C[C@H](F)C6)nc4c3F)c12 (mixture of isomers) [Example 25, N-((1-(dimethylamino)cyclobutyl)methyl)-8-fluoro-2-(((2S,7aR)-2-fluorotetrahydro-1H-pyrrolizin-7a(5H)-yl)methoxy)-7-(8-isopropylnaphthalen-1-yl)pyrido[4,3-d]pyrimidin-4-amine] was run?
Its IC50 is 1.64 µM.

How did the IC50 turn out when CN(C)C1(CNc2nc(OCC34CCCN3C[C@H](F)C4)nc3c(F)c(-c4cccc5cccc(C6CC6)c45)ncc23)CCC1 (mixture of isomers) [Example 26, 7-(8-cyclopropylnaphthalen-1-yl)-N-((1-(dimethylamino)cyclobutyl)methyl)-8-fluoro-2-(((2S,7aR)-2-fluorotetrahydro-1H-pyrrolizin-7a(5H)-yl)methoxy)pyrido[4,3-d]pyrimidin-4-amine] was run?
The IC50 was 0.344 µM.

With CN(C)CCNc1nc(OC[C@@]23CCCN2C[C@H](F)C3)nc2c(F)c(-c3cc(O)cc4ccccc34)ncc12 (racemic) [Example 39, 4-(4-((2-(dimethylamino)ethyl)amino)-8-fluoro-2-(((2S,7aR)-2-fluorotetrahydro-1H-pyrrolizin-7a(5H)-yl)methoxy)pyrido[4,3-d]pyrimidin-7-yl)naphthalen-2-ol bis(2,2,2-trifluoroacetate)] as the compound, how does the IC50 read?
The IC50 was 0.521 µM.

How did the IC50 turn out when Cc1cccc2cccc(-c3ncc4c(NCC5(N(C)C)CCC5)nc(OC[C@@]56CCCN5C[C@H](F)C6)nc4c3F)c12 [Example 2, N-((1-(dimethylamino)cyclobutyl)methyl)-8-fluoro-2-(((2R,7aS)-2-fluorotetrahydro-1H-pyrrolizin-7a(5H)-yl)methoxy)-7-(8-methylnaphthalen-1-yl)pyrido[4,3-d]pyrimidin-4-amine bis(2,2,2-trifluoroacetate)] was run?
Its IC50 is 0.269 µM.

With CN(C)C1(CNc2nc(OC[C@@]34CCCN3C[C@H](F)C4)nc3c(F)c(-c4cccc5cccc(C(F)(F)F)c45)ncc23)CCC1 [Example 3, N-((1-(dimethylamino)cyclobutyl)methyl)-8-fluoro-2-(((2R,7aS)-2-fluorotetrahydro-1H-pyrrolizin-7a(5H)-yl)methoxy)-7-(8-(trifluoromethyl)naphthalen-1-yl)pyrido[4,3-d]pyrimidin-4-amine] as the compound, how does the IC50 read?
The IC50 was 0.239 µM.

Oc1cc(-c2ncc3c(NCC4(N5CCOCC5)CCC4)nc(OC[C@@]45CCCN4C[C@H](F)C5)nc3c2F)c2ccccc2c1 [Example 4, 4-(8-fluoro-2-(((2R,7aS)-2-fluorotetrahydro-1H-pyrrolizin-7a(5H)-yl)methoxy)-4-(((1-morpholinocyclobutyl)methyl)amino)pyrido[4,3-d]pyrimidin-7-yl)naphthalen-2-ol] was tested. Which IC50 did it give?
The IC50 was 0.958 µM.

Which IC50 does the source give for CN1CCC[C@H]1COc1nc(NC2C3CNCC32)c2cnc(-c3cc(O)cc4ccccc34)c(F)c2n1 (stereo partly drawn) [Example 5, 4-(4-((3-azabicyclo[3.1.0]hexan-6-yl)amino)-8-fluoro-2-(((S)-1-methylpyrrolidin-2-yl)methoxy)pyrido[4,3-d]pyrimidin-7-yl)naphthalen-2-ol bis(2,2,2-trifluoroacetate)] here?
The IC50 was 2.26 µM.

Which IC50 does the source give for CN(C)C1(CNc2nc(OC[C@@]34CCCN3C[C@H](F)C4)nc3c(F)c(-c4cc(O)cc5ccccc45)ncc23)CC1 [Example 6, 4-(4-(((1-(dimethylamino)cyclopropyl)methyl)amino)-8-fluoro-2-(((2R,7aS)-2-fluorotetrahydro-1H-pyrrolizin-7a(5H)-yl)methoxy)pyrido[4,3-d]pyrimidin-7-yl)naphthalen-2-bis(2,2,2-trifluoroacetate)] here?
The IC50 was 0.117 µM.

How did the IC50 turn out when CC(C)c1ccccc1-c1ncc2c(NCC3(N(C)C)CCC3)nc(OCC34CCCN3CCC4)nc2c1F [Example 9, N-((1-(dimethylamino)cyclobutyl)methyl)-8-fluoro-7-(2-isopropylphenyl)-2-((tetrahydro-1H-pyrrolizin-7a(5H)-yl)methoxy)pyrido[4,3-d]pyrimidin-4-amine bis(2,2,2-trifluoroacetate)] was run?
The IC50 was 2.17 µM.

Which IC50 does the source give for CC(C)c1ccccc1-c1ncc2c(NCC3(N(C)C)CCC3)nc(OC[C@@]34CCCN3C[C@H](F)C4)nc2c1F [Example 10, N-((1-(dimethylamino)cyclobutyl)methyl)-8-fluoro-2-(((2R,7aS)-2-fluorotetrahydro-1H-pyrrolizin-7a(5H)-yl)methoxy)-7-(2-isopropylphenyl)pyrido[4,3-d]pyrimidin-4-amine bis(2,2,2-trifluoroacetate)] here?
The IC50 was 3.72 µM.

How did the IC50 turn out when CN1CCC[C@H]1COc1nc(NCC2(N(C)C)CCC2)c2cnc(-c3cc(O)cc4ccccc34)c(F)c2n1 [Example 11, (S)-4-(4-(((1-(dimethylamino)cyclobutyl)methyl)amino)-8-fluoro-2-((1-methylpyrrolidin-2-yl)methoxy)pyrido[4,3-d]pyrimidin-7-yl)naphthalen-2-ol bis(2,2,2-trifluoroacetate)] was run?
Its IC50 is 0.098 µM.

Cc1cc2[nH]ncc2c(-c2ncc3c(NCC4(N(C)C)CCC4)nc(OC[C@@]45CCCN4C[C@H](F)C5)nc3c2F)c1Cl [Example 12, 7-(5-chloro-6-methyl-1H-indazol-4-yl)-N-((1-(dimethylamino)cyclobutyl)methyl)-8-fluoro-2-(((2R,7aS)-2-fluorotetrahydro-1H-pyrrolizin-7a(5H)-yl)methoxy)pyrido[4,3-d]pyrimidin-4-amine bis(2,2,2-trifluoroacetate)] was tested. Which IC50 did it give?
Its IC50 is 0.1 µM.

With Cc1c(Cl)cc2[nH]ncc2c1-c1ncc2c(NCC3(N(C)C)CCC3)nc(OC[C@@]34CCCN3C[C@H](F)C4)nc2c1F [Example 13, 7-(6-chloro-5-methyl-1H-indazol-4-yl)-N-((1-(dimethylamino)cyclobutyl)methyl)-8-fluoro-2-(((2R,7aS)-2-fluorotetrahydro-1H-pyrrolizin-7a(5H)-yl)methoxy)pyrido[4,3-d]pyrimidin-4-amine bis(2,2,2-trifluoroacetate)] as the compound, how does the IC50 read?
Its IC50 is 0.165 µM.

With CN(C)C1(CNc2nc(OCC34CCCN3CCC4)nc3c(F)c(-c4cccc5cccc(F)c45)ncc23)CCC1 [Example 14, N-((1-(dimethylamino)cyclobutyl)methyl)-8-fluoro-7-(8-fluoronaphthalen-1-yl)-2-((hexahydro-1H-pyrrolizin-7a-yl)methoxy)pyrido[4,3-d]pyrimidin-4-amine] as the compound, how does the IC50 read?
Its IC50 is 0.306 µM.

Which IC50 does the source give for CC(C)(O)CNc1nc(OC[C@@]23CCCN2C[C@H](F)C3)nc2c(F)c(-c3cccc4cccc(Cl)c34)ncc12 [Example 15, 1-((7-(8-chloronaphthalen-1-yl)-8-fluoro-2-(((2R,7aS)-2-fluorotetrahydro-1H-pyrrolizin-7a(5H)-yl)methoxy)pyrido[4,3-d]pyrimidin-4-yl)amino)-2-methylpropan-2-ol] here?
The IC50 was 3.15 µM.

Which IC50 does the source give for CN(C)C1(CNc2nc(OCC34CCCN3CCC4)nc3c(F)c(-c4cccc(Cl)c4C4CC4)ncc23)CCC1 [Example 16, 7-(3-chloro-2-cyclopropylphenyl)-N-((1-(dimethylamino)cyclobutyl)methyl)-8-fluoro-2-((tetrahydro-1H-pyrrolizin-7a(5H)-yl)methoxy)pyrido[4,3-d]pyrimidin-4-amine] here?
The IC50 was 0.146 µM.

With C[C@H]1CNC[C@@H]1Nc1nc(OCC23CCCN2CCC3)nc2c(F)c(-c3cc(O)cc4ccccc34)ncc12 [Example 19, 4-(8-fluoro-4-(((3R,4S)-4-methylpyrrolidin-3-yl)amino)-2-((tetrahydro-1H-pyrrolizin-7a(5H)-yl)methoxy)pyrido[4,3-d]pyrimidin-7-yl)naphthalen-2-ol] as the compound, how does the IC50 read?
The IC50 was 0.245 µM.

Which IC50 does the source give for CN(C)C1(CNc2nc(OC[C@@]34CCCN3C[C@H](F)C4)nc3c(F)c(-c4cccc5cccc(F)c45)ncc23)CCC1 [Example 22, N-((1-(dimethylamino)cyclobutyl)methyl)-8-fluoro-7-(8-fluoronaphthalen-1-yl)-2-(((2R,7aS)-2-fluorotetrahydro-1H-pyrrolizin-7a(5H)-yl)methoxy)pyrido[4,3-d]pyrimidin-4-amine] here?
The IC50 was 1.32 µM.

With CN(C)C1(CNc2nc(OC[C@@]34CCCN3C[C@H](F)C4)nc3c(F)c(-c4cccc5cccc(Cl)c45)ncc23)CCC1 [Example 23, 7-(8-chloronaphthalen-1-yl)-N-((1-(dimethylamino)cyclobutyl)methyl)-8-fluoro-2-(((2R,7aS)-2-fluorotetrahydro-1H-pyrrolizin-7a(5H)-yl)methoxy)pyrido[4,3-d]pyrimidin-4-amine] as the compound, how does the IC50 read?
Its IC50 is 0.583 µM.

For CC#Cc1cccc2cccc(-c3ncc4c(NCC5(N(C)C)CCC5)nc(OC[C@@]56CCCN5C[C@H](F)C6)nc4c3F)c12 [Example 27, N-((1-(dimethylamino)cyclobutyl)methyl)-8-fluoro-2-(((2R,7aS)-2-fluorotetrahydro-1H-pyrrolizin-7a(5H)-yl)methoxy)-7-(8-(prop-1-yn-1-yl)naphthalen-1-yl)pyrido[4,3-d]pyrimidin-4-amine], which IC50 is on record?
The IC50 was 1.88 µM.

How did the IC50 turn out when CN(CC1(N(C)C)CCC1)c1nc(OC[C@@]23CCCN2C[C@H](F)C3)nc2c(F)c(-c3cc(O)cc4ccccc34)ncc12 [Example 28] was run?
Its IC50 is 0.609 µM.

With CN(C)C1(CNc2nc(OC[C@@]34CCCN3C[C@H](F)C4)nc3c(F)c(-c4cc(O)cc5ccccc45)ncc23)CCCCC1 [Example 30] as the compound, how does the IC50 read?
The IC50 was 1.58 µM.
